Experimental data as given in patent publication US20260216143A1, “PHARMACEUTICAL COMPOSITION FOR TREATING CHRONIC KIDNEY DISEASE” (priority 2020, published 2026).

How the values were obtained:
[1] = system: Alport syndrome model (129-Col4a3tm 1Dec/J) mice; assay: Body weight of Alport syndrome (AS) mice (Example 2); format: in vivo, mouse; conditions: FIG. 16; groups receiving a DHA ethyl ester; p<0.01, t test
Description: Body weight was measured using a scale for animals twice weekly from the grouping day and daily from the day of the first animal death until the sampling day of each group.
Animals were restrained, and a test substance was administered directly into the stomach using a 1-mL syringe and a sonde (Fuchigami Kikai, CAT No. 5200). Administration was performed in accordance with the conditions described in Section 5.1., so that a volume of 5 mL/kg should be administered to each animal. The volume administered was calculated on the basis of the most recent (before the administration day) body weight.
The mean and standard error of the body weight and the wet weight of each organ were calculated for each study group. Further, each of the measured values was compared between the Group Number (2) and each of other groups. A statistical analysis add-in software “Excel Statistics 2015” (Social Survey Research Information Co., Ltd.) was used for statistical processing, and a significant difference was determined with a […] (p value)<0.05.

[2] = system: Alport syndrome model (129-Col4a3tm1Dec/J) mice; assay: Survival of Alport syndrome model mice, oral repeated administration (Example 1); format: in vivo, mouse; conditions: Pirespa 100 mg/kg/day, FIG. 1
Description: Each test substance is orally and repeatedly administered to Alport syndrome model (129-Col4a3tm1Dec/J) mice for 10 weeks, and then a serum biochemistry test is performed. The kidneys are further observed histopathologically to examine the effect of administration of each test substance on the kidneys.
Test substances were prepared for each use before use on the experiment day. Candesartan was dissolved at a dose of 4 mg/mL in phosphate-buffered saline (hereinafter referred to as PBS) to prepare a dosing solution (10 mg/2.5 mL/kg) for Group Numbers 6 and 7. A solution was prepared by diluting this dosing solution with an equal amount of PBS as a dosing solution (10 mg/5 ml/kg) for Group Number 3. Pirespa was dissolved at a dose of 40 mg/mL in PBS and dissolved in PBS which was to be a dosing solution (50 mg/1.25 mL/kg) for Group Number 6. A solution was prepared by diluting this dosing solution with an equal amount of PBS as a dosing solution (50 mg/2.5 mL/kg) for Group Number 4. Lotriga was suspended at a dose of […] in a 0.5% methylcellulose solution (hereinafter referred to as MC) to prepare a dosing solution (1500 mg/2.5 mL/kg) for Group Number 7. […]
Animals were restrained, and a test substance was orally administered using a 1-mL syringe and a sonde. […] The volume administered was calculated on the basis of the most recent body weight. […]

[3] = system: Alport syndrome model (129-Col4a3tm1Dec/J) mice; assay: Body weight of Alport syndrome model mice (Example 1); format: in vivo, mouse; conditions: FIG. 2; body weight immediately before death used for dead mice; candesartan 10 mg/kg, Lotriga 1500 mg/kg
Description: Body weight was measured using a scale for animals twice weekly from the grouping day and on the sampling day of each group.
Animals were restrained, and a test substance was orally administered using a 1-mL syringe and a sonde. Administration was performed in accordance with the conditions described in Section 5.1., so that a volume of approximately 0.1 mL should be administered to each animal. The volume administered was calculated on the basis of the most recent body weight. […] The administration interval was 6 hours or longer.
Of note, when the mean body weight was calculated, the body weight of a dead mouse was not assumed as zero, and the body weight measured immediately before death was used for calculation.

[4] = system: Alport syndrome model (129-Col4a3tm1Dec/J) mice; format: in vivo; conditions: FIG. 4
Description: (§1) The body weights of animals were measured at Day 45, blood was drawn from the caudal vena cava under anesthesia with isoflurane, and animals were euthanized by exsanguination. Death was confirmed by visually observing cardiopulmonary arrest (euthanasia). Then, the left and right kidneys, the left and right femurs, the left and right eyeballs, the cochlea, the heart, and the pancreas were collected and trimmed, and the wet weights of the left and right kidneys, the left and right femurs, and the heart were measured. Among the collected biotissues, the left and right femurs were immersed in a 70% ethanol solution. Other tissues were immersed in a 10% neutral buffered formalin solution. Of note, the right kidney was divided into two at the renal pelvis and immersed after to obtain kidney specimens.
The obtained blood was allowed to stand at room temperature for at least four hours and centrifuged under conditions of 4° C., 12000 rpm, and 3 min to obtain serum. Serum was divided into two tubes and frozen.
Blood biochemistry test items were measured using the frozen serum delegated to the external facility. The measurement items were total protein, albumin, blood urea nitrogen (BUN), creatinine (CRE), uric acid, sodium (Na), potassium (K), chloride (CI), calcium, phosphorus, amylase, lipase, AST (GOT), ALT (GPT), Y-GTP, LDH, triglyceride, total cholesterol, HDL cholesterol, total bilirubin, and glucose. Pooled specimens of each group were used for measurement.

[5] = system: Alport syndrome model (129-Col4a3tm1Dec/J) mice; assay: Histopathological test of the kidneys: HE, PAS, MT, PAM staining and damage scoring (Example 1); format: in vivo, mouse
Description: as §1
The kidneys immersed in a 10% neutral buffered formalin solution were sent to the external facility, and Hematoxylin-Eosin (HE) staining, Periodic Acid-Schiff (PAS) staining, Masson's Trichrome (MT) staining, and Periodic Acid Methenamine silver (PAM) staining were performed for pathological assessment.
The severity of glomerular damage was assessed in each group of Alport syndrome model mice. Specifically, the severity was quantified for glomerulosclerosis, crescent formation, and basement membrane with a double contour with five levels (0, no change; 1, slight; 2, mild; 3, moderate; 4, severe. Refer to “Guidance on pathological diagnosis of diabetic nephropathy and hypertensive nephrosclerosis,” Tokyo Igakusha).
The severity of renal tubular damage was assessed in each group of Alport syndrome model mice. Specifically, the severity was quantified for renal tubular expansion accompanied by hyaline casts, interstitial fibrosis, inflammatory cell infiltration into the interstitium, and renal tubular expansion accompanied by cellular casts with five levels (0, no change; 1, slight; 2, mild; 3, moderate; 4, severe. Refer to “Guidance on pathological diagnosis of diabetic nephropathy and hypertensive nephrosclerosis,” Tokyo Igakusha).

[6] = system: Col4a3−/− mice; conditions: cited from earlier work
[7] = serum, pooled specimens per group, Day 45

In the case of `CC/C=C\C/C=C\C/C=C\C/C=C\C/C=C\C/C=C\CCC(=O)OCC` [DHA ethyl ester, docosahexaenoic acid ethyl ester], the “mean body weight vs untreated group” value [1] is reported as “significantly increased as compared with the untreated group”.
With `CCOc1nc2cccc(C(=O)OC(C)OC(=O)OC3CCCCC3)c2n1Cc1ccc(-c2ccccc2-c2nn[nH]n2)cc1` (stereo not drawn) [candesartan, Candesartan cilexetil] the survival rate ([2]; Day 45 (end of study), candesartan 10 mg/kg once daily, Lotriga 1500 mg/kg once daily) was 40%, the “changes with time in the mean body weight” value [3] was “body weight loss began from 25 days after administration, and marked body weight loss was also observed in surviving mice” and the “progression of renal failure” value ([4]; judged from blood biochemistry) was “at a level comparable to that in the untreated group”. For the same compound, the BUN level [4, 7] was “very high and as high as in the untreated group”, the K level [4, 7] was “development of hyperkalemia” and the creatinine level [4, 7] was “very high and as high as in the untreated group”. The “kidney histopathology, HE staining findings” value ([5]; FIG. 7) was “adhesion to the glomerulus due to glomerulosclerosis and crescent formation, renal tubular expansion, and lymphocyte infiltration into the interstitium were observed at various sites”, the “kidney histopathology, PAS staining findings” value ([5]; FIG. 8) was “glomerulosclerosis, in which PAS-positive substances were deposited on the mesangial substrate, and growth of crescent cells were observed” and the “kidney histopathology, MT staining (fibrosis)” value ([5]; FIG. 9) was “Fibrosis was observed in an area of crescent hyperplasia and in the renal tubular interstitium”. For the same compound, the “kidney histopathology, PAM staining (double contour of the loop wall)” value ([5]; FIG. 10) was “A double contour of the loop wall was observed”, the serum urea concentration [6] was “markedly decreased” and the survival time [6] was “significantly prolonged”. For the same compound, the urine protein level [6] was “markedly decreased”.
In the case of `Cc1ccc(=O)n(-c2ccccc2)c1` [Pirespa], the “survival (in words)” value ([2]; up to Day 45, candesartan 10 mg/kg, Lotriga 1500 mg/kg) is reported as “all mice died early”.
For `CCOC(=O)[C@H](CCc1ccccc1)N[C@@H](C)C(=O)N1[C@H](C(=O)O)C[C@@H]2CCC[C@@H]21` [ramipril], the serum urea concentration [6] is listed as “markedly decreased”, the survival time [6] is listed as “significantly prolonged” and the urine protein level [6] is listed as “markedly decreased”.
